Results reported in patent publication US20040106582A1, “Use of mglur5 antagonists for the treatment of pruritic conditions” (priority 2001, published 2004).

Key:
[1] = system: magnesium deficiency-induced dermatosis in rat; assay: model of magnesium deficiency-induced dermatosis in rat; type: in vivo; conditions: male hairless rats on low-magnesium diet, oral treatment at 6 mg/kg/day, 5 consecutive days
Excerpt: Activity of mGluR5 antagonists as antipruritics according to the invention is evidenced for example in a model of magnesium deficiency-induced dermatosis in rat. This dermatosis is characterised by a transient erythematous maculopapular rash associated with a severe generalised pruritus. The animals scratch and bite themselves causing excoriations and wounds on the head and trunk (Neckermann G., Bavandi A., Meingassner J. G., Br. J. Dermatol; 2000; 142: 669-679). According to this model, male hairless rats (Ico:OFA hr/hr) obtained from Iffa Credo (Lyon, France) at an age of 3 weeks are maintained with a diet low in magnesium (C10350, Altromin, Lage, Germany) and demineralised water. After onset of symptoms, the test compound is applied orally to 5 rats per group on 5 consecutive days. Control animals are treated similarly with the vehicle alone. Efficacy is assessed by clinical examination and semiquantitative assessment of skin lesions. The intensity and extend of the erythematous maculopapular rash is scored with 0 (not present) to 4 (most severe changes, involvement of the whole trunk). The intensity of pruritus is evaluated by the scoring of excoriations at the head, shoulders, lateral abdomen/flanks and caudal dorsal trunk with 0 (not present), 1 (few lesions) or […] (numerous lesions) resulting in a combined maximal score of 12 per animal. […]

[2] = system: itch induced in mice by Compound 48/80; assay: model of itch induced in mice by injection of the pruritic agent Compound 48/80; type: in vivo; conditions: C57BL/6 mice, 30 μg/10 μl s.c. Compound 48/80, oral administration of 3-30 mg/kg and 10-100 mg/kg, 30 min prior, observed 30 minutes
Procedure: Experiments are carried out on adult female and male C57BL/6 mice (25-30 g). Individual mice receive the test compound p.o. (a vehicle alone for control animals) 30 min. prior to subcutaneous injections of the above mentioned pruritic agent into the dorsal neck region and are then placed into a clear Perspex box. A maximum of 3 mice are closely and continuously observed by an experimenter for 30 minutes following injection. ‘Scratching episodes’ are defined as scratching focused at the site of injection using the hind paws, and differentiated from grooming behaviour that also involves licking and is systematically directed over all body regions. The duration of the itch behaviour is recorded by using a keyboard linked to three stop-clocks.

SMILES | inflammatory skin reddening and infiltration [1] | signs of pruritus (scoring of excoriations) [1] | duration of scratching episodes induced by the pruritic agent [2]
Cc1cccc(C#Cc2cccnc2)n1 [2-[2-(pyridin-3-yl)ethynyl]-6-methyl-pyridine] | is not inhibited | inhibits signs of pruritus | 
Cc1cccc(C#Cc2ccccc2)n1 [2-methyl-6-phenylethynyl-pyridine] |  |  | significantly decreases
